Experimental data as given in article PMC7883216 (Peptides, 2021).
Where two headings read alike, the source gives them in different places.

Assays:
[1] = Pharmacokinetics of exogenous mouse GIP; type: in vivo, female C57Bl/6Jrj mice; settings: for peak intact GIP concentration as % of peak total GIP concentration: in-house RIAs; for increase of iAUC of intact GIP upon co-administration of Val-Pyr: P < 0.0001; for Clearance, corrected for body weight / Apparent volume of distribution corrected for body weight: IV 25 nmol/kg BW, mean ± SE, n = 6-9; for Clearance, corrected for body weight: CL = k*Vd
[2] = in humans; cited from earlier work
[3] = anaesthetized rats; cited from earlier work
[4] = female, C57Bl/6Jrj, mouse, plasma, iv, 25 nmol/kg BW

peak intact GIP concentration as % of peak total GIP concentration ([1]; IP injection 25 nmol/kg BW, with Val-Pyr) [%] | peak intact GIP concentration as % of peak total GIP concentration ([1]; IP injection 25 nmol/kg BW, without Val-Pyr) [%] | increase of iAUC of intact GIP upon co-administration of Val-Pyr ([1]; IP injection 25 nmol/kg BW, Fig. 1F) [fold] | peak intact GIP concentration as % of peak total GIP concentration ([1]; IV injection 25 nmol/kg BW, with Val-Pyr) [%] | peak intact GIP concentration as % of peak total GIP concentration ([1]; IV injection 25 nmol/kg BW, without Val-Pyr, mean) [%] | increase of iAUC of intact GIP upon co-administration of Val-Pyr ([1]; IV injection 25 nmol/kg BW, Fig. 1B) [fold] | peak intact GIP concentration as % of peak total GIP concentration ([1]; SC injection 25 nmol/kg BW, with Val-Pyr) [%] | peak intact GIP concentration as % of peak total GIP concentration ([1]; SC injection 25 nmol/kg BW, without Val-Pyr) [%] | increase of iAUC of intact GIP upon co-administration of Val-Pyr ([1]; SC injection 25 nmol/kg BW, Fig. 1D) [fold] | half-life [1, 4] [min] | tissue uptake dose [1, 4] [%ID] | tissue uptake dose ([1]; female, C57Bl/6Jrj, mouse, plasma, sc, 25 nmol/kg BW) [%ID] | intact GIP levels as % of total GIP plasma concentrations ([1]; following SC and IP GIP administration without DPP-4 inhibitor) | Molecule | Clearance, corrected for body weight ([1]; Val-Pyr co-administration) [µL/min/g] | Apparent volume of distribution corrected for body weight ([1]; Val-Pyr co-administration) [mL/g] | Clearance, corrected for body weight ([1]; placebo (no Val-Pyr)) [µL/min/g] | Apparent volume of distribution corrected for body weight ([1]; placebo (no Val-Pyr), Vd = total dose/C0) [mL/g] | plasma half-life [2] | plasma half-life [3]
82 | 16 | 7.8 | 110 | 41 | 5.4 | 82 | 14 | 8.1 | 1.5 | 13 ± 1 | 10 ± 1 | approximately 15% | CC[C@H](C)[C@H](NC(=O)[C@H](CO)NC(=O)[C@H](Cc1ccc(O)cc1)NC(=O)[C@H](CC(=O)O)NC(=O)[C@H](CO)NC(=O)[C@@H](NC(=O)[C@H](Cc1ccccc1)NC(=O)[C@@H](NC(=O)CNC(=O)[C@H](CCC(=O)O)NC(=O)[C@H](C)NC(=O)[C@@H](N)Cc1ccc(O)cc1)[C@@H](C)O)[C@@H](C)CC)C(=O)N[C@@H](C)C(=O)N[C@@H](CCSC)C(=O)N[C@@H](CC(=O)O)C(=O)N[C@@H](CCCCN)C(=O)N[C@H](C(=O)N[C@@H](CCCNC(=N)N)C(=O)N[C@@H](CCC(N)=O)C(=O)N[C@@H](CCC(N)=O)C(=O)N[C@@H](CC(=O)O)C(=O)N[C@@H](Cc1ccccc1)C(=O)N[C@H](C(=O)N[C@@H](CC(N)=O)C(=O)N[C@@H](Cc1c[nH]c2ccccc12)C(=O)N[C@@H](CC(C)C)C(=O)N[C@@H](CC(C)C)C(=O)N[C@@H](C)C(=O)N[C@@H](CCC(N)=O)C(=O)N[C@@H](CCCNC(=N)N)C(=O)NCC(=O)N[C@@H](CCCCN)C(=O)N[C@@H](CCCCN)C(=O)N[C@@H](CO)C(=O)N[C@@H](CC(=O)O)C(=O)N[C@@H](Cc1c[nH]c2ccccc12)C(=O)N[C@@H](CCCCN)C(=O)N[C@@H](Cc1c[nH]cn1)C(=O)N[C@@H](CC(N)=O)C(=O)N[C@H](C(=O)N[C@H](C(=O)N[C@@H](CCC(N)=O)C(=O)O)[C@@H](C)O)[C@@H](C)CC)C(C)C)[C@@H](C)CC [GIP(1–42)] | 45 ± 4 | 0.46 ± 0.03 | 207 ± 16 | 0.34 ± 0.1 | approximately 7 min | approximately 2 min
 |  |  |  |  |  |  |  |  |  |  |  |  | human GIP(1–42): human GIP(1–42), half-life in humans quoted from ref 11 |  |  |  |  | approximately 7 min | 
